The data set is described as follows: Pharmacokinetic study in minipigs (i.v.). The following applies: male, Göttingen, minipig, in vivo, iv. Here is the method: The derivatives of Examples 12, 14, and 15 were dosed 2 nmol/kg. The derivatives of Examples 1 and 2 were dosed 15 nmol/kg.
Setting [1] is: minipigs, i.v., 5 nmol/kg, harmonic mean, read-out: Terminal half-live (converted).
Setting [2] is: minipigs, i.v., 2 nmol/kg, harmonic mean, read-out: Terminal half-live (converted).

SMILES strings stand for the structures. Like-named read-outs stand apart in the source and are kept apart here.

These results are taken from patent publication US10392428B2, “GLP-1 derivatives and uses thereof” (Novo Nordisk A/S, priority 2014, dated 2019).

Turning to `CC[C@H](C)[C@H](NC(=O)[C@H](Cc1ccccc1)NC(=O)[C@H](CCC(=O)O)NC(=O)[C@H](CCCNC(=N)N)NC(=O)[C@H](C)NC(=O)[C@H](C)NC(=O)[C@H](CCC(N)=O)NC(=O)[C@H](CCC(=O)O)NC(=O)[C@H](CCC(=O)O)NC(=O)[C@H](CC(C)C)NC(=O)[C@H](Cc1ccc(O)cc1)NC(=O)[C@H](CO)NC(=O)[C@H](CO)NC(=O)[C@@H](NC(=O)[C@H](CC(=O)O)NC(=O)[C@H](CO)NC(=O)[C@@H](NC(=O)[C@H](Cc1ccccc1)NC(=O)[C@@H](NC(=O)CNC(=O)[C@H](CCC(=O)O)NC(=O)C(C)(C)NC(=O)[C@@H](N)Cc1c[nH]cn1)[C@@H](C)O)[C@@H](C)O)C(C)C)C(=O)N[C@@H](C)C(=O)N[C@@H](Cc1c[nH]c2ccccc12)C(=O)N[C@@H](CC(C)C)C(=O)N[C@H](C(=O)N[C@@H](CCCNC(=N)N)C(=O)NCC(=O)N[C@@H](CCCNC(=N)N)C(=O)N[C@@H](CCCCNC(=O)COCCOCCNC(=O)COCCOCCNC(=O)COCCOCCNC(=O)COCCOCCNC(=O)[C@H](CCCCNC(=O)CC[C@H](NC(=O)[C@H]1CC[C@H](CNC(=O)CCCCCCCCCCCCCCCCCCC(=O)O)CC1)C(=O)O)NC(=O)CC[C@H](NC(=O)[C@H]1CC[C@H](CNC(=O)CCCCCCCCCCCCCCCCCCC(=O)O)CC1)C(=O)O)C(=O)O)C(C)C` [Example 8, N{Epsilon-37}-[2-[2-[2-[[2-[2-[2-[[2-[2-[2-[[2-[2-[2-[[(2S)-2,6-bis[[(4S)-4-carboxy-4-[[4-[(19-carboxynonadecanoylamino)methyl]cyclohexanecarbonyl]amino]butanoyl]amino]hexanoyl]amino]ethoxy]ethoxy]acetyl]amino]ethoxy]ethoxy]acetyl]amino]ethoxy]ethoxy]acetyl]amino]ethoxy]ethoxy]acetyl]-[Aib8,Glu22,Arg26,Arg34,Lys37]-GLP-1-(7-37)-peptide], the half-life under setting [1] is 145 h. For `CCCCCCCCCCCCCC(=O)NCCOCCOCC(=O)NCCCC[C@H](NC(=O)COCCOCCNC(=O)CCCCCCCCCCCCC)C(=O)NCCOCCOCC(=O)NCCCC[C@H](NC(=O)[C@H](CCCNC(=N)N)NC(=O)C(C)(C)NC(=O)[C@H](CCCCN)NC(=O)[C@@H](NC(=O)[C@H](CC(C)C)NC(=O)[C@H](Cc1c[nH]c2ccccc12)NC(=O)[C@H](C)NC(=O)[C@@H](NC(=O)[C@H](Cc1ccccc1)NC(=O)[C@H](CCC(=O)O)NC(=O)[C@H](CCCCN)NC(=O)[C@H](C)NC(=O)[C@H](C)NC(=O)[C@H](CCC(N)=O)NC(=O)C(C)(C)NC(=O)[C@H](CCC(=O)O)NC(=O)[C@H](CC(C)C)NC(=O)[C@H](Cc1ccc(O)cc1)NC(=O)[C@H](CO)NC(=O)[C@H](CO)NC(=O)[C@@H](NC(=O)[C@H](CC(=O)O)NC(=O)[C@H](CO)NC(=O)[C@@H](NC(=O)[C@H](Cc1ccccc1)NC(=O)[C@@H](NC(=O)CNC(=O)[C@H](CCC(=O)O)NC(=O)C(C)(C)NC(=O)[C@@H](N)Cc1c[nH]cn1)[C@@H](C)O)[C@@H](C)O)C(C)C)[C@@H](C)CC)C(C)C)C(N)=O` [Comparative Example 2, N{Epsilon-37}-[2-[2-[2-[[(2S)-2,6-bis[[2-[2-[2-(tetradecanoylamino)ethoxy]ethoxy]acetyl]amino]hexanoyl]amino]ethoxy]ethoxy]acetyl]-[Aib8,Aib22,Aib35,Lys37]-GLP-1-(7-37)-peptide Amide, reference compound], the half-life was 3 h. Same read-out and setting: the figure for `CCCCCCCCCCCC(=O)NCCOCCOCC(=O)NCCCC[C@H](NC(=O)COCCOCCNC(=O)CCCCCCCCCCC)C(=O)NCCOCCOCC(=O)NCCCC[C@H](NC(=O)[C@H](CCCNC(=N)N)NC(=O)C(C)(C)NC(=O)[C@H](CCCCN)NC(=O)[C@@H](NC(=O)[C@H](CC(C)C)NC(=O)[C@H](Cc1c[nH]c2ccccc12)NC(=O)[C@H](C)NC(=O)[C@@H](NC(=O)[C@H](Cc1ccccc1)NC(=O)[C@H](CCC(=O)O)NC(=O)[C@H](CCCCN)NC(=O)[C@H](C)NC(=O)[C@H](C)NC(=O)[C@H](CCC(N)=O)NC(=O)C(C)(C)NC(=O)[C@H](CCC(=O)O)NC(=O)[C@H](CC(C)C)NC(=O)[C@H](Cc1ccc(O)cc1)NC(=O)[C@H](CO)NC(=O)[C@H](CO)NC(=O)[C@@H](NC(=O)[C@H](CC(=O)O)NC(=O)[C@H](CO)NC(=O)[C@@H](NC(=O)[C@H](Cc1ccccc1)NC(=O)[C@@H](NC(=O)CNC(=O)[C@H](CCC(=O)O)NC(=O)C(C)(C)NC(=O)[C@@H](N)Cc1c[nH]cn1)[C@@H](C)O)[C@@H](C)O)C(C)C)[C@@H](C)CC)C(C)C)C(N)=O` [Comparative Example 1, N{Epsilon-37}-[2-[2-[2-[[(2S)-2,6-bis[[2-[2-[2-(dodecanoylamino)ethoxy]ethoxy]acetyl]amino]hexanoyl]amino]ethoxy]ethoxy]acetyl]-[Aib8,Aib22,Aib35,Lys37]-GLP-1-(7-37)-peptide Amide, reference compound] is 3 h. Regarding `CC[C@H](C)[C@H](NC(=O)[C@H](Cc1ccccc1)NC(=O)[C@H](CCC(=O)O)NC(=O)[C@H](CCCNC(=N)N)NC(=O)[C@H](C)NC(=O)[C@H](C)NC(=O)[C@H](CCC(N)=O)NC(=O)[C@H](CCC(=O)O)NC(=O)[C@H](CCC(=O)O)NC(=O)[C@H](CC(C)C)NC(=O)[C@H](Cc1ccc(O)cc1)NC(=O)[C@H](CO)NC(=O)[C@H](CO)NC(=O)[C@@H](NC(=O)[C@H](CC(=O)O)NC(=O)[C@H](CO)NC(=O)[C@@H](NC(=O)[C@H](Cc1ccccc1)NC(=O)[C@@H](NC(=O)CNC(=O)[C@H](CCC(=O)O)NC(=O)C(C)(C)NC(=O)[C@@H](N)Cc1c[nH]cn1)[C@@H](C)O)[C@@H](C)O)C(C)C)C(=O)N[C@@H](C)C(=O)N[C@@H](Cc1c[nH]c2ccccc12)C(=O)N[C@@H](CC(C)C)C(=O)N[C@H](C(=O)N[C@@H](CCCNC(=N)N)C(=O)NCC(=O)N[C@@H](CCCNC(=N)N)C(=O)N[C@@H](CCCCNC(=O)COCCOCCNC(=O)COCCOCCNC(=O)COCCOCCNC(=O)COCCOCCNC(=O)COCCOCCNC(=O)COCCOCCNC(=O)COCCOCCNC(=O)COCCOCCNC(=O)[C@H](CCCCNC(=O)CC[C@H](NC(=O)[C@H]1CC[C@H](CNC(=O)CCCCCCCCCCCCCCCCCCC(=O)O)CC1)C(=O)O)NC(=O)CC[C@H](NC(=O)[C@H]1CC[C@H](CNC(=O)CCCCCCCCCCCCCCCCCCC(=O)O)CC1)C(=O)O)C(=O)O)C(C)C` [Example 13], under setting [1], the half-life is 119 h.

As to `CC[C@H](C)[C@H](NC(=O)[C@H](Cc1ccccc1)NC(=O)[C@H](CCC(=O)O)NC(=O)[C@H](CCCNC(=N)N)NC(=O)[C@H](C)NC(=O)[C@H](C)NC(=O)[C@H](CCC(N)=O)NC(=O)[C@H](CCC(=O)O)NC(=O)[C@H](CCC(=O)O)NC(=O)[C@H](CC(C)C)NC(=O)[C@H](Cc1ccc(O)cc1)NC(=O)[C@H](CO)NC(=O)[C@H](CO)NC(=O)[C@@H](NC(=O)[C@H](CC(=O)O)NC(=O)[C@H](CO)NC(=O)[C@@H](NC(=O)[C@H](Cc1ccccc1)NC(=O)[C@@H](NC(=O)CNC(=O)[C@H](CCC(=O)O)NC(=O)C(C)(C)NC(=O)[C@@H](N)Cc1c[nH]cn1)[C@@H](C)O)[C@@H](C)O)C(C)C)C(=O)N[C@@H](C)C(=O)N[C@@H](Cc1c[nH]c2ccccc12)C(=O)N[C@@H](CC(C)C)C(=O)N[C@H](C(=O)N[C@@H](CCCNC(=N)N)C(=O)NCC(=O)N[C@@H](CCCNC(=N)N)C(=O)N[C@@H](CCCCNC(=O)COCCOCCNC(=O)COCCOCCNC(=O)COCCOCCNC(=O)COCCOCCNC(=O)[C@H](CCCCNC(=O)COCCOCCNC(=O)COCCOCCNC(=O)CC[C@H](NC(=O)[C@H]1CC[C@H](CNC(=O)CCCCCCCCCCCCCCCCCCC(=O)O)CC1)C(=O)O)NC(=O)COCCOCCNC(=O)COCCOCCNC(=O)CC[C@H](NC(=O)[C@H]1CC[C@H](CNC(=O)CCCCCCCCCCCCCCCCCCC(=O)O)CC1)C(=O)O)C(=O)O)C(C)C` [Example 15], the half-life under setting [2] is 142 h. With `CC[C@H](C)[C@H](NC(=O)[C@H](Cc1ccccc1)NC(=O)[C@H](CCC(=O)O)NC(=O)[C@H](CCCNC(=N)N)NC(=O)[C@H](C)NC(=O)[C@H](C)NC(=O)[C@H](CCC(N)=O)NC(=O)[C@H](CCC(=O)O)NC(=O)[C@H](CCC(=O)O)NC(=O)[C@H](CC(C)C)NC(=O)[C@H](Cc1ccc(O)cc1)NC(=O)[C@H](CO)NC(=O)[C@H](CO)NC(=O)[C@@H](NC(=O)[C@H](CC(=O)O)NC(=O)[C@H](CO)NC(=O)[C@@H](NC(=O)[C@H](Cc1ccccc1)NC(=O)[C@@H](NC(=O)CNC(=O)[C@H](CCC(=O)O)NC(=O)C(C)(C)NC(=O)[C@@H](N)Cc1c[nH]cn1)[C@@H](C)O)[C@@H](C)O)C(C)C)C(=O)N[C@@H](C)C(=O)N[C@@H](Cc1c[nH]c2ccccc12)C(=O)N[C@@H](CC(C)C)C(=O)N[C@H](C(=O)N[C@@H](CCCNC(=N)N)C(=O)NCC(=O)N[C@@H](CCCNC(=N)N)C(=O)N[C@@H](CCCCNC(=O)COCCOCCNC(=O)COCCOCCNC(=O)COCCOCCNC(=O)COCCOCCNC(=O)COCCOCCNC(=O)COCCOCCNC(=O)[C@H](CCCCNC(=O)CC[C@H](NC(=O)[C@H]1CC[C@H](CNC(=O)CCCCCCCCCCCCCCCCCCC(=O)O)CC1)C(=O)O)NC(=O)CC[C@H](NC(=O)[C@H]1CC[C@H](CNC(=O)CCCCCCCCCCCCCCCCCCC(=O)O)CC1)C(=O)O)C(=O)O)C(C)C` [Example 12], the half-life under setting [2] was 142 h.
